Read-outs that look alike come from different tables or passages of the source. Marks after values point to notes of the source that are not given here.
Tests used:
CDF1 male mice = conditions: single oral administration
Protocol: 7-week-old CDF1 male mice (6 mice) were used. The compound 1 was suspended in 0.5% methylcellulose and the resulting suspension was orally administered once by oral probe. The mortality rate was investigated after 2 weeks and the LD50 value was calculated by the probit method.

[1] = test system: type II collagen-induced arthritis; conditions: for Inhibition ratio (%): arthritis score 35 days after primary sensitization
Protocol: 8-week-old DBA/1J male mice (7 to 10 mice) were used. 0.1 ml of an emulsion prepared by mixing a 0.1 M solution of acetic acid in physiological saline (2 mg/ml) of type II collagen derived from bovine joint cartilage and complete Freund's adjuvant at a mixing ratio of 1:1 was injected intradermally at the base of the tail in mice (primary sensitization). 21 days later, 0.1 ml of the emulsion prepared in the same manner as in case of primary sensitization was injected subcutaneously again at the back in mice (secondary sensitization). The test compound was suspended in an aqueous 0.5% methyl cellulose solution and administered orally to the mice once a day, which started from the primary or secondary sensitization. After 35 days from the primary sensitization, symptoms of arthritis was visually observed and the results were used a score of arthritis.

Question: Which “toxicity (in words)” value (CDF1 male mice; mice) does the source give for COc1ccc(S(=O)(=O)N(C(C)=O)c2ccccc2/C=C/c2cc[n+]([O-])cc2)cc1 [Compound 1] here?
Answer: very low toxicity

Question: What about the LD50 value (CDF1 male mice; mortality after 2 weeks, probit method) of the same compound?
Answer: 620.5 mg/kg

Question: And the “Inhibition ratio (%)” value ([1]; 1 mg/kg orally once a day, started from the primary sensitization)?
Answer: −8.5%

Question: What about the “inhibitory effect on type II collagen-induced arthritis (in words)” value ([1]; 5 mg/kg from the primary sensitization, or 5 and 10 mg/kg from the secondary sensitization) of the same compound?
Answer: significant inhibitory effect

Question: What about the “Inhibition ratio (%)” value ([1]; 5 mg/kg orally once a day, started from the primary sensitization) of the same compound?
Answer: 69.5* %

Question: And the “Inhibition ratio (%)” value ([1]; 5 mg/kg orally once a day, started from the secondary sensitization)?
Answer: 69.6* %

Question: What about the “Inhibition ratio (%)” value ([1]; 10 mg/kg orally once a day, started from the secondary sensitization) of the same compound?
Answer: 100.0** %
